pIC50: −log10 of the molar value.
Key:
CSNK1G3 = target: T1, CSNK1G3 (Homo sapiens, UniProt Q9Y6M4); assay: KinomeScan competition binding assay; conditions: 10 μM compound
T1 construct: purchased KinomeScan, a division of Ambit Biosciences
How it was run: (§1)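 Binding, not catalytic activity, is measured here. Compound displacement of DNA-tagged kinase from an immobilized ligand directed at the ATP site is read by quantitative PCR and given as POC or Kd.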

MAP4K2 = target: T2, MAP4K2 (Homo sapiens, UniProt Q12851); assay: KinomeScan competition binding assay; conditions: 10 μM compound
T2 construct: purchased KinomeScan, a division of Ambit Biosciences
T2 sequence (Q12851 1-820): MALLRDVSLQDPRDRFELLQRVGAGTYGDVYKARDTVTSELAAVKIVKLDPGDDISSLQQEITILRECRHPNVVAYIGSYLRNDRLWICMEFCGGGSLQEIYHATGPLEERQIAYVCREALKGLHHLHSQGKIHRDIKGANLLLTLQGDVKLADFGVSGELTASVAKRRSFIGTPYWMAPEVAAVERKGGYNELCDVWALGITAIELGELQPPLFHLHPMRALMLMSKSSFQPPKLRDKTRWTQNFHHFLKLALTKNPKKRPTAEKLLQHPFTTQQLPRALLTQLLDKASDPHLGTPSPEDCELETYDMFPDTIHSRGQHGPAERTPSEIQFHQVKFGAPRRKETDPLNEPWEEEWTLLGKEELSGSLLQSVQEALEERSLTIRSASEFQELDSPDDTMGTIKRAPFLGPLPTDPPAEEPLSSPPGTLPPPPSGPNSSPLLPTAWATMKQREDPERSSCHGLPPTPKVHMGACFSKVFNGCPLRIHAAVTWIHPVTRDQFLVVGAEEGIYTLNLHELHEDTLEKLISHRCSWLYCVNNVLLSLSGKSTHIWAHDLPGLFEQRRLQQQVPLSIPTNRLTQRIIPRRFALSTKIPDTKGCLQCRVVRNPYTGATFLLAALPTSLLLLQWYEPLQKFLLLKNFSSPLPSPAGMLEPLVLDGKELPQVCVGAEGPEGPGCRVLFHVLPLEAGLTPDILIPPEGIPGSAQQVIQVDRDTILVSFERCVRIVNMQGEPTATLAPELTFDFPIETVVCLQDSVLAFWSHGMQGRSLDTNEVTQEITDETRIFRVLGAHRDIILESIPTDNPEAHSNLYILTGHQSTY
How it was run: as §1

SLK = target: T3, SLK (Homo sapiens, UniProt Q9H2G2); assay: KinomeScan competition binding assay; conditions: 10 μM compound
T3 construct: purchased KinomeScan, a division of Ambit Biosciences
T3 sequence (Q9H2G2 whole entry): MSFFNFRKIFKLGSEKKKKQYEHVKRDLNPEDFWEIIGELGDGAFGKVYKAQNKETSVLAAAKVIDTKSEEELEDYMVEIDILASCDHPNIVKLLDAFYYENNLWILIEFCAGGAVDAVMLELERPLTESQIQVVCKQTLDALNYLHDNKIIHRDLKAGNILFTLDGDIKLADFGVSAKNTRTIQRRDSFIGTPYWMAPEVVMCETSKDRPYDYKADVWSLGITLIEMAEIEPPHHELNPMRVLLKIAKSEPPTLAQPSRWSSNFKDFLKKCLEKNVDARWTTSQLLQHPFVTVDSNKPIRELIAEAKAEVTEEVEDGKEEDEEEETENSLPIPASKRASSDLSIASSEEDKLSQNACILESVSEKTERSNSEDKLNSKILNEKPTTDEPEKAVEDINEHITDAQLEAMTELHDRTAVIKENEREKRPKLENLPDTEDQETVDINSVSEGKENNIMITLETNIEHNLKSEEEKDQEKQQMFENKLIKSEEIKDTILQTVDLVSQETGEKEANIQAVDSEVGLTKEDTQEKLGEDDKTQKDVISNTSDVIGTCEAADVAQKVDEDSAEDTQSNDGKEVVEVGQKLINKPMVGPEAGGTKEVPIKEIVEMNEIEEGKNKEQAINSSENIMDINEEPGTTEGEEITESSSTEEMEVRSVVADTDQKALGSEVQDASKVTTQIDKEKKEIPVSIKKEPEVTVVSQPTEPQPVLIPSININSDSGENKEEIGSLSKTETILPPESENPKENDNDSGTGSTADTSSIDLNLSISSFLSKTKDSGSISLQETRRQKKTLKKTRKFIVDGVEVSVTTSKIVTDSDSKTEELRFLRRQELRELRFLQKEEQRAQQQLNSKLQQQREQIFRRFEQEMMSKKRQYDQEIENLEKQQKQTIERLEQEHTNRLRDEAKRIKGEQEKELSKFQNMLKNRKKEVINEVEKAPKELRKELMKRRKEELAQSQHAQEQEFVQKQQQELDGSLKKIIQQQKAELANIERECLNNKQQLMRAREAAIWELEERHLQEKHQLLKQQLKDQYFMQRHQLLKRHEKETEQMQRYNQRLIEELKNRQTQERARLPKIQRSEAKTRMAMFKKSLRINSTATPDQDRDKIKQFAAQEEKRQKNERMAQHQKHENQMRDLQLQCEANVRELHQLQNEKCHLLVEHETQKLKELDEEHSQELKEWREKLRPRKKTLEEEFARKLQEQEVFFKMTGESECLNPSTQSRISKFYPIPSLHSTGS
How it was run: as §1

PIK3CG = target: T4, PIK3CG (Homo sapiens, UniProt P48736); assay: KinomeScan competition binding assay; conditions: 10 μM compound
T4 construct: purchased KinomeScan, a division of Ambit Biosciences
T4 sequence (P48736 whole entry): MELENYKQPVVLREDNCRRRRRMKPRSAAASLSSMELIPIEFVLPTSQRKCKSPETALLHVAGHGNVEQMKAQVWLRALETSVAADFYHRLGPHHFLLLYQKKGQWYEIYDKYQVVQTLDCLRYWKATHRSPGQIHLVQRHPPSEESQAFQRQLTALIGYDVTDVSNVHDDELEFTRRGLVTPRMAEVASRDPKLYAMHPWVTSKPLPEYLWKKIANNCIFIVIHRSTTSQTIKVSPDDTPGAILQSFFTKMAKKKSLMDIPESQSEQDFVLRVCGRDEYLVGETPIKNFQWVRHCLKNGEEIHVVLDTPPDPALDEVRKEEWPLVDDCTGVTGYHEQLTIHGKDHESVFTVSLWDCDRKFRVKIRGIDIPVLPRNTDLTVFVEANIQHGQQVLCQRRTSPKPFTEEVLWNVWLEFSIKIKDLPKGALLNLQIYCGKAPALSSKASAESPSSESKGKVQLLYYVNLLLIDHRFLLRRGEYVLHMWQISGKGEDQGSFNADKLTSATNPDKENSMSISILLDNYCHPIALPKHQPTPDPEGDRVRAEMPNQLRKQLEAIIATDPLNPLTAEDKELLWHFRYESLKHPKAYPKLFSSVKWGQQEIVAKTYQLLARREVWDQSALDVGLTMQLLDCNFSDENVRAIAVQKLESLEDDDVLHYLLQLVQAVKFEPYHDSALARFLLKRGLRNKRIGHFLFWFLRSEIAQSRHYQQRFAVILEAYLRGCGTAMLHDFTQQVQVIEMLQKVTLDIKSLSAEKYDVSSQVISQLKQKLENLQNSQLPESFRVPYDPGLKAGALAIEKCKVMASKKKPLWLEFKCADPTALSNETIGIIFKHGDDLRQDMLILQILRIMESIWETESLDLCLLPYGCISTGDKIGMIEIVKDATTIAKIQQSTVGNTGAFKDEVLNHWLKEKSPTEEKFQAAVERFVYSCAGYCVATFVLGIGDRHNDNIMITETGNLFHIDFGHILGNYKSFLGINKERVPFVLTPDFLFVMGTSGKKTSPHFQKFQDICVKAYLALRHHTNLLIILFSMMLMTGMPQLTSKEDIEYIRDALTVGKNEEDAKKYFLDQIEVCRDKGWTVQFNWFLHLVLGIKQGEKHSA
How it was run: as §1

CSNK1G2 = target: T5, CSNK1G2 (Homo sapiens, UniProt P78368); assay: KinomeScan competition binding assay; conditions: 10 μM compound
T5 construct: purchased KinomeScan, a division of Ambit Biosciences
T5 sequence (P78368 whole entry): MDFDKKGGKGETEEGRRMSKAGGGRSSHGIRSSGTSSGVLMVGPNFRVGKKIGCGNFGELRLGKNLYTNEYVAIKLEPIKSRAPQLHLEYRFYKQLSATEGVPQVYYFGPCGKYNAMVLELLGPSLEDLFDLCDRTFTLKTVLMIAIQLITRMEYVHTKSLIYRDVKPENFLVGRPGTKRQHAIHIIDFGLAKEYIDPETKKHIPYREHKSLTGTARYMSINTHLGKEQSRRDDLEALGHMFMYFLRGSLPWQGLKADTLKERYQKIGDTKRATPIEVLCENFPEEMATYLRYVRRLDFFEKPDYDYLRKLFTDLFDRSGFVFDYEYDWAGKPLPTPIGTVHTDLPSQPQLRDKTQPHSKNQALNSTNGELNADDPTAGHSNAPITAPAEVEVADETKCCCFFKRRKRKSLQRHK
How it was run: as §1

C26 = assay: Colon carcinoma cell proliferation, FACS count of live cells; assay type: cell-based, murine; conditions: 72 hrs, 2.5, 5 or 10 μM
Experimental: Inhibition of β-catenin, which is positively regulated by CDK8, was reported to inhibit proliferation of some colon carcinoma cell lines (Firestein et al., 2008). We have therefore determined the ability of compound 1 to inhibit the proliferation of several colon carcinoma cell lines, including human DLD1, HCT116, SW480 and murine C26. This analysis waqs carried out by incubating cells for 72 hrs in the presence of 0, 2.5, 5 or 10 μM compound 1, followed by FACS measurement of the number of live cells, as defined by the lack of uptake of membrane-impermeable dye propidium iodide.

T1 sequence (Q9Y6M4 whole entry): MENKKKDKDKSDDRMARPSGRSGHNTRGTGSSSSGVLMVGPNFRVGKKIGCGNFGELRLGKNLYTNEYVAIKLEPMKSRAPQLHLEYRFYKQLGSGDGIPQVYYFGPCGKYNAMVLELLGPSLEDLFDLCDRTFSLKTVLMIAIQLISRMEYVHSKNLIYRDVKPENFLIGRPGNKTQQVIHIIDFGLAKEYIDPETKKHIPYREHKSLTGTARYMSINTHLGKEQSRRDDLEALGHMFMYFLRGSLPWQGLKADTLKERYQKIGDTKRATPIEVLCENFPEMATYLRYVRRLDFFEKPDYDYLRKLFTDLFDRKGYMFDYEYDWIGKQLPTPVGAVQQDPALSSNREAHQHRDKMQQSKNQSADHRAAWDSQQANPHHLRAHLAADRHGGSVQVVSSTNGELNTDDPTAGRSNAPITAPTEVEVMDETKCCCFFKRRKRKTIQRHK

SMILES | POC ligand binding, CSNK1G3 (CSNK1G3) | POC ligand binding, MAP4K2 (MAP4K2) | POC ligand binding, SLK (SLK) | POC ligand binding, PIK3CG (PIK3CG) | POC ligand binding, CSNK1G2 (CSNK1G2) | POC ligand binding, CSNK1G3 (CSNK1G3; 10 µM) | POC ligand binding, MAP4K2 (MAP4K2; 10 µM) | POC ligand binding, SLK (SLK; 10 µM) | POC ligand binding, CSNK1G2 (CSNK1G2; 10 µM) | IC50 KB-3-1 relative to IC50 for HUVEC cells (KB-3-1 carcinoma cells) | pIC50 (KB-3-1 carcinoma cells; read-out: IC50, KB-3-1 proliferation, 3-day MTT) | growth of colon carcinoma cell line (C26)
N#Cc1ccc2ncnc(NCc3ccc(Cl)cc3)c2c1 [compound 20] | 82 POC | 21 POC | 61 POC | 40 POC | 62 POC | – | – | – | – | – | – | –
N#Cc1ccc2ncnc(NCCc3ccc4ccccc4c3)c2c1 [compound 26] | 50 POC | 28 POC | 73 POC | 58 POC | 57 POC | – | – | – | – | – | – | –
CCCNc1ncnc2ccc(N3CCOCC3)cc12 [compound 46] | 100 POC | 82 POC | 88 POC | 94 POC | 55 POC | – | – | – | – | – | – | –
CC(C)CNc1ncnc2ccc(C(F)(F)F)cc12 [compound 45] | 50 POC | 12 POC | 59 POC | 82 POC | 53 POC | – | – | – | – | – | – | –
N#Cc1ccc2ncnc(NCc3ccc4ccccc4c3)c2c1 [compound 14] | – | – | – | 35 POC | – | 52 POC | 16 POC | 90 POC | 43 POC | – | – | –
N#Cc1ccc2ncnc(NCc3ccc4ccccc4c3)c2c1 [compound 43] | – | – | – | 35 POC | – | 54 POC | 28 POC | 92 POC | 53 POC | – | – | –
N#Cc1ccc2ncnc(NCCc3ccccc3)c2c1 [compound 1] | 16 POC | 12 POC | 11 POC | 8 POC | 16 POC | – | – | – | – | 4.3 fold | 4.35 | inhibited the growth
COc1ccc2ncnc(NCCc3ccccc3)c2c1 [compound 44] | 84 POC | 35 POC | 43 POC | 88 POC | 80 POC | – | – | – | – | – | – | –
